# Measurements: ChEMBL document CHEMBL4118122, “Identification and biological evaluation of thiazole-based inverse agonists of RORγt” (Bioorg Med Chem Lett, 2018)
# Legend:
# [1] = Half life in human microsomes; assay type: ADME, Microsome
# Cytochrome P450 1A2 = biological target: T1, Cytochrome P450 1A2 (Homo sapiens, UniProt P05177); experiment: Inhibition of CYP1A2 (unknown origin); assay type: ADME
# T1 sequence (P05177 whole entry): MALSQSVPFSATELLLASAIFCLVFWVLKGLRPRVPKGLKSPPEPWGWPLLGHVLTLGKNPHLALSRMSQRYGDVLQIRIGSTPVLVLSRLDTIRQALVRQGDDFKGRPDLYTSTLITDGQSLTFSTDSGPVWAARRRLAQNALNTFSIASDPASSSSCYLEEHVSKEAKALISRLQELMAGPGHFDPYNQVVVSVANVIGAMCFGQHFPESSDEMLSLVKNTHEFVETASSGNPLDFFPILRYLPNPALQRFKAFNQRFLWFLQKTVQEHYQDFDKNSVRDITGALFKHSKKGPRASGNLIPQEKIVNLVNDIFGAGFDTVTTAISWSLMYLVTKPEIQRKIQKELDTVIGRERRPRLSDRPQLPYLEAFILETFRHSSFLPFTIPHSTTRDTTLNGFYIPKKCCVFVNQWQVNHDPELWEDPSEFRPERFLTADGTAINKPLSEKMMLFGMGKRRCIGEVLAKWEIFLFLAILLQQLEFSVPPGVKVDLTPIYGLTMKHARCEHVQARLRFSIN
# Cytochrome P450 2C9 = Cytochrome P450 2C9 (Homo sapiens, UniProt P11712); experiment: Inhibition of CYP2C9 (unknown origin); assay type: ADME
# Cytochrome P450 2C19 = Cytochrome P450 2C19 (Homo sapiens, UniProt P33261); experiment: Inhibition of CYP2C19 (unknown origin); assay type: ADME
# [2] = Thermodynamic solubility of the compound in 30 mM phosphate buffer at 10 mM at pH 7 after 2 to 5 days by UV-HPLC analysis; assay type: physicochemical; details: read-out: Therm_solubility
# Cytochrome P450 2D6 = Cytochrome P450 2D6 (Homo sapiens, UniProt P10635); experiment: Inhibition of CYP2D6 (unknown origin); assay type: ADME
# [3] = Thermodynamic solubility of the compound in fasted state simulated intestinal […] after 2 to 5 days by UV-HPLC analysis; assay type: physicochemical; details: read-out: Therm_solubility
# [4] = Half life in rat microsomes; assay type: ADME, Microsome
# Cytochrome P450 3A4 = Cytochrome P450 3A4 (Homo sapiens, UniProt P08684); experiment: Inhibition of CYP3A4 (unknown origin); assay type: ADME
# Cytochrome P450 2C8 = biological target: T2, Cytochrome P450 2C8 (Homo sapiens, UniProt P10632); experiment: Inhibition of CYP2C8 (unknown origin); assay type: ADME
# T2 sequence (P10632 whole entry): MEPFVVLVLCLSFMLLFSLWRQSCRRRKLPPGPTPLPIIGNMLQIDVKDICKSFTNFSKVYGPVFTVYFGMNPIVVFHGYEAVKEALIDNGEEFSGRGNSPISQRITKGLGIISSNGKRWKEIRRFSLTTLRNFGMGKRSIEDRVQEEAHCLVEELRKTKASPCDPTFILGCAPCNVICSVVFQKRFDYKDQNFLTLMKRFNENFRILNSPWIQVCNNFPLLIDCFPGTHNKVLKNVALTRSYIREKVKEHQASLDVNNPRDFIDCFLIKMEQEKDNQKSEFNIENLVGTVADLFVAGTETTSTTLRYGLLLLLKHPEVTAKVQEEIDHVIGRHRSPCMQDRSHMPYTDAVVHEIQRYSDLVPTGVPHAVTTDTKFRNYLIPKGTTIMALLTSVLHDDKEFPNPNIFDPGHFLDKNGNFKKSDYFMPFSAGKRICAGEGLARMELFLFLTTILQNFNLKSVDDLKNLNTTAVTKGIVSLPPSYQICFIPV
# [5] = biological target: T3, Nuclear receptor ROR-beta (Homo sapiens, UniProt Q92753); experiment: Binding affinity to recombinant human RORbeta LBD (201 to 452 residues) expressed in Escherichia coli BL21 (DE3) GOLD by 1,8-ANS dye-based thermofluor assay
# T3 sequence (Q92753 whole entry): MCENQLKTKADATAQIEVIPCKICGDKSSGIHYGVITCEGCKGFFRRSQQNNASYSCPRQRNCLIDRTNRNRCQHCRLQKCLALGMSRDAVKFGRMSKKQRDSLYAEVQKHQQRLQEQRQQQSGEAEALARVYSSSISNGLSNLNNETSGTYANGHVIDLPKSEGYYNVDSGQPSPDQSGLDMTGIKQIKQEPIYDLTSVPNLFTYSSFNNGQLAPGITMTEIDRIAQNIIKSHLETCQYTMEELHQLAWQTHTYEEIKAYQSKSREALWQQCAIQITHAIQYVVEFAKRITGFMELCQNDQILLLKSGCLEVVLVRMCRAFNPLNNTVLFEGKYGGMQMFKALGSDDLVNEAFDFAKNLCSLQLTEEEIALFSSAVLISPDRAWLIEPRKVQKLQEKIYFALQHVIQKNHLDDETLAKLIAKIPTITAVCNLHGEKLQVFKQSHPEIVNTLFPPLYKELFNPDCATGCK
# PXR (NR1I2) [6] = biological target: T4, PXR (NR1I2) (Homo sapiens, UniProt O75469); experiment: […] at PXR LBD (unknown origin) expressed in HEK293 cells […] at 1 uM after 16 hrs by luciferase reporter gene assay relative to rifampicin; assay type: ADME, cell-based; details: HEK293 cells expressing PXR LBD, read-out: Efficacy
# T4 sequence (O75469 whole entry): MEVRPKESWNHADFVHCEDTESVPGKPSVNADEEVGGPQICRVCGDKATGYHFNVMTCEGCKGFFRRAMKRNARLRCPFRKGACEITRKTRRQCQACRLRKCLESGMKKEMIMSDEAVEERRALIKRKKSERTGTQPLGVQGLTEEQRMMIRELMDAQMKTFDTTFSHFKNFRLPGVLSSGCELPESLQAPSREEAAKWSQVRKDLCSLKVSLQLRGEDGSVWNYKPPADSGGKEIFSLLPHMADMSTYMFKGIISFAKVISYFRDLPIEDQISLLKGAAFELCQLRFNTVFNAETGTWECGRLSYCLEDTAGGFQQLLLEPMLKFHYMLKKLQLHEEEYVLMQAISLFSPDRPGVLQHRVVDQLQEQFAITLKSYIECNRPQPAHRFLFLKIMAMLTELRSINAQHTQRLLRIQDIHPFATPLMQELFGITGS
# PXR (NR1I2) [7] = biological target: T4, PXR (NR1I2); experiment: […] at PXR LBD (unknown origin) expressed in HEK293 cells […] at 5 uM after 16 hrs by luciferase reporter gene assay relative to rifampicin; assay type: ADME, cell-based; details: HEK293 cells expressing PXR LBD, read-out: Efficacy
# [8] = Initial plasma concentration in Sprague-Dawley rat at 1 mg/kg, iv; assay type: ADME, organism-based
# [9] = Clearance in Sprague-Dawley rat at 1 mg/kg, iv; assay type: ADME, organism-based; details: in vivo
# [10] = Oral bioavailability in Sprague-Dawley rat at 5 mg/kg; assay type: ADME, organism-based; details: in vivo
# [11] = Tmax in Sprague-Dawley rat at 5 mg/kg, po; assay type: ADME, organism-based; details: in vivo
# PXR (NR1I2) [12] = biological target: T4, PXR (NR1I2); experiment: […] at PXR LBD (unknown origin) expressed in HEK293 cells […] at 10 uM after 16 hrs by luciferase reporter gene assay relative to rifampicin; assay type: ADME, cell-based; details: HEK293 cells expressing PXR LBD, read-out: Efficacy
# [13] = Cmax in Sprague-Dawley rat at 5 mg/kg, po; assay type: ADME, organism-based; design: dose 5 mg/kg, route oral; details: in vivo
# [14] = Volume of distribution at steady state in Sprague-Dawley rat at 1 mg/kg, iv; assay type: ADME, organism-based; details: in vivo, read-out: Vdss
# [15] = AUC (0 to infinity) in Sprague-Dawley rat at 1 mg/kg, iv; assay type: ADME, organism-based; design: dose 1 mg/kg, time infinity, route intravenous; details: in vivo
# [16] = Half life in Sprague-Dawley rat at 1 mg/kg, iv; assay type: ADME, organism-based; details: in vivo
# [17] = AUC (0 to infinity) in Sprague-Dawley rat at 5 mg/kg, po; assay type: ADME, organism-based; design: dose 5 mg/kg, route oral, time infinity; details: in vivo
# [18] = Terminal half life in Sprague-Dawley rat at 5 mg/kg, po; assay type: ADME, organism-based; details: in vivo, read-out: beta t1/2 (converted)
# Cytochrome P450 2D6, sequence (P10635 whole entry): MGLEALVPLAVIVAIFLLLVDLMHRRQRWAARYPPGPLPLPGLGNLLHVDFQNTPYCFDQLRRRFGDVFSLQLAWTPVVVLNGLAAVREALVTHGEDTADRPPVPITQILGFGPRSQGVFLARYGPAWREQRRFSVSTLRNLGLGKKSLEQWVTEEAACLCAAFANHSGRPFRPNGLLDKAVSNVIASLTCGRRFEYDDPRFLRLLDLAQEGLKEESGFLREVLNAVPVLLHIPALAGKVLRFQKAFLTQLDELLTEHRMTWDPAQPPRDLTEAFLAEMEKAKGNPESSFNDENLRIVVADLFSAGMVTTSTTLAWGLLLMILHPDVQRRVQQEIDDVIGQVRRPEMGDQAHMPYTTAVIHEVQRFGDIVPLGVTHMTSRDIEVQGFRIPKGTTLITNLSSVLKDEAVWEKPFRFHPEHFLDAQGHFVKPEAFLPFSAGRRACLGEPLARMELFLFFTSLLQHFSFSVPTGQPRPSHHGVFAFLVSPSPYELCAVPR
# Cytochrome P450 3A4, sequence (P08684 whole entry): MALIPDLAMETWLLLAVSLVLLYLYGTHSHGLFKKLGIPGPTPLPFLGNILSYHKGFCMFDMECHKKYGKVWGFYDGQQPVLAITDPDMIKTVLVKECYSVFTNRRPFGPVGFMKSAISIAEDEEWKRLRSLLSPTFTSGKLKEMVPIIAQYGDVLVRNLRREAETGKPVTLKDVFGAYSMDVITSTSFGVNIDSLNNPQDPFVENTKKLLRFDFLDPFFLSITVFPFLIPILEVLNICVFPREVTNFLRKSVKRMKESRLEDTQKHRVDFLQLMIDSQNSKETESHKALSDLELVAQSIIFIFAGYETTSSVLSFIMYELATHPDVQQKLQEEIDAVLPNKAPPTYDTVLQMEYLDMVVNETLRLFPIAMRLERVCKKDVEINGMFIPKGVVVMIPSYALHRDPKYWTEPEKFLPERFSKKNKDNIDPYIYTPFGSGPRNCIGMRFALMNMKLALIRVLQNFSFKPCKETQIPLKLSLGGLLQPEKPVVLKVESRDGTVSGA
# Cytochrome P450 2C19, sequence (P33261 whole entry): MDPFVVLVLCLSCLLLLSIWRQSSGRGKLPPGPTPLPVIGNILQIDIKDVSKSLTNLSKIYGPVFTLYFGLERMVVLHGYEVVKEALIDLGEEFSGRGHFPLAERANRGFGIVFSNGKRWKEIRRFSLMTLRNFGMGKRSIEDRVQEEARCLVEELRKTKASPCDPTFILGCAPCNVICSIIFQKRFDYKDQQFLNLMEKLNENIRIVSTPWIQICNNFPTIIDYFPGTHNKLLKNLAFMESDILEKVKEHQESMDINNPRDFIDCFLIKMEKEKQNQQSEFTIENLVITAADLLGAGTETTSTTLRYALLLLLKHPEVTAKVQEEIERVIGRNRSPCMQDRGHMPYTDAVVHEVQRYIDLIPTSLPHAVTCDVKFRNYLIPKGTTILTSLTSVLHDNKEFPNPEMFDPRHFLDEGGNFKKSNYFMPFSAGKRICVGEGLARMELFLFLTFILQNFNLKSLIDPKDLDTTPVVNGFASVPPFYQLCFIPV
# Cytochrome P450 2C9, sequence (P11712 whole entry): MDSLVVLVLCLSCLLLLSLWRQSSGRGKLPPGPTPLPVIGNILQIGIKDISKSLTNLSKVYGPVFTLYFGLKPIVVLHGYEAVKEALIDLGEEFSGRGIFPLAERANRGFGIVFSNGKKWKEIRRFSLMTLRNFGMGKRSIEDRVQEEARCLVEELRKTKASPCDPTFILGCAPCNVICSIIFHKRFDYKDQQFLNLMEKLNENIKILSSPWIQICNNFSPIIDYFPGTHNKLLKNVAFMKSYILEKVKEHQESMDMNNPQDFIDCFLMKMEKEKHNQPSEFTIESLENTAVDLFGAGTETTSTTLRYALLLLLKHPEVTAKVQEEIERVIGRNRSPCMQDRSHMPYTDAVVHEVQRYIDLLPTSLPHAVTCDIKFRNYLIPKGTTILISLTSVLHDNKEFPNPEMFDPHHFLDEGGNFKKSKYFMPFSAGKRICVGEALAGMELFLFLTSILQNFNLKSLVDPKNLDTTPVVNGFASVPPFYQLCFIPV
Compound,half-life [1] [h],INH (Cytochrome P450 1A2) [µM],INH (Cytochrome P450 2C9) [µM],INH (Cytochrome P450 2C19) [µM],solubility thermodynamic at 10000 µM [2] [µM],INH (Cytochrome P450 2D6) [µM],half-life [4] [h],INH (Cytochrome P450 3A4) [µM],INH (Cytochrome P450 2C8) [µM],Kd [5] [µM],"Emax at 16 h, 1 µM (PXR (NR1I2) [6]) [%]","Emax at 16 h, 5 µM (PXR (NR1I2) [7]) [%]",C0 [8] [ng/mL],clearance [9] [mL/min/kg],bioavailability [10] [%],Tmax [11] [h],Cmax [13] [ng/mL],Vd [14] [L/kg],AUC(0-inf) [15] [ng·h/mL],half-life [16] [h],other results
CC(C)(C)NS(=O)(=O)c1ccc(-c2sc(C(=O)N[C@H]3C[C@H](C(=O)O)C3)nc2CC2CCCCC2)c(C(F)(F)F)c1,> 3,> 10,> 10,> 10,< 4,> 10,2.33,> 10,3.4,–,–,–,–,–,–,–,–,–,–,–,solubility thermodynamic [3]: > 400 µM
CC(C)(C)NS(=O)(=O)c1ccc(-c2sc(C(=O)N3CC4(C3)CS(=O)(=O)C4)nc2CC2CCCCC2)c2ccccc12,–,–,–,–,–,–,–,–,–,> 85,–,–,–,–,–,–,–,–,–,–,–
CC(C)NS(=O)(=O)c1ccc(-c2sc(C(=O)N[C@H]3C[C@H](C(=O)O)C3)nc2CC2CCCCC2)c(C(F)F)c1Cl,1.88,> 10,7.6,> 10,11,> 10,1.42,> 10,6.2,–,66,113,–,–,–,–,–,–,–,–,solubility thermodynamic [3]: > 400 µM
CC(C)(C)NS(=O)(=O)c1ccc(-c2sc(C(=O)N[C@H]3C[C@H](C(=O)O)C3)nc2CC2CCCCC2)c(Cl)c1,1.68,> 10,> 10,> 10,6.6,> 10,1.22,> 10,3.5,> 75,101,–,2300,107,20,0.8,130,2.3,162,0.5,"Emax at 16 h, 10 µM (PXR (NR1I2) [12]): 178%; AUC(0-inf) [17]: 328 ng·h/mL; half-life [18]: 2.1 h"
Cc1c(S(=O)(=O)NC(C)(C)C)ccc(-c2sc(C(=O)N[C@H]3C[C@H](C(=O)O)C3)nc2CC2CCCCC2)c1OC(F)F,0.617,> 10,8.7,> 10,< 1,> 10,0.433,> 10,4,–,86,–,–,–,–,–,–,–,–,–,"Emax at 16 h, 10 µM (PXR (NR1I2) [12]): 173%; solubility thermodynamic [3]: 50 µM"
C[C@H](NS(=O)(=O)c1ccc(-c2sc(C(=O)NCC(C)(C)O)nc2-c2cccc(F)c2)c(Cl)c1Cl)C(F)(F)F,–,–,–,–,–,–,–,–,–,> 78,69,122,–,–,–,–,–,–,–,–,–
C[C@H](NS(=O)(=O)c1ccc(-c2sc(C(=O)NCC(C)(C)O)nc2CC2CC2)c2ccccc12)C(F)(F)F,> 3,> 10,0.4,2,< 4,> 10,0.9,> 10,3.3,–,122,188,119,40.7,14.8,0.8,55,29.5,415,10.2,AUC(0-inf) [17]: 314 ng·h/mL; half-life [18]: 6.9 h
C[C@H](NS(=O)(=O)c1ccc(-c2sc(C(=O)NCC(C)(C)O)nc2C2CCCCC2)c(Cl)c1Cl)C(F)(F)F,–,–,–,–,–,–,–,–,–,> 76,60,68,–,–,–,–,–,–,–,–,–
C[C@H](NS(=O)(=O)c1ccc(-c2sc(C(=O)NCC(C)(C)O)nc2CC2CCC2)c(C(F)F)c1)C(F)(F)F,> 3,> 10,2.7,3,< 4,5.4,0.95,> 10,> 10,> 72,74,144,310,46.7,32.5,1.7,57,5.4,198,1.9,AUC(0-inf) [17]: 321 ng·h/mL; half-life [18]: 3.2 h
C[C@H](NS(=O)(=O)c1ccc(-c2sc(C(=O)NC3CCS(=O)(=O)CC3)nc2CC2CC2)c2ccccc12)C(F)(F)F,1.67,> 10,2.9,> 10,< 4,> 10,2.35,> 10,> 10,> 69,99,131,470,21.6,42.5,1.7,276,3.4,792,3.8,AUC(0-inf) [17]: 1700 ng·h/mL; half-life [18]: 2.6 h
